Data taken from US9586951B2 (FUJIFILM Corporation, priority 2013, dated 2017).

Tests used:
ATM = molecular target: T1, ATM (Homo sapiens, UniProt Q13315); assay: ATM inhibition test (phosphorylation of Chk2 generated by ionizing radiation, AlphaScreen SureFire); type: cell-based; conditions: phosphorylated Chk2 in NCI-H460 cells, ionizing radiation 8Gy, 1 hour after test compound treatment; read-out: ATM inhibitory activity
T1 construct: detecting phosphorylation of Chk2 in a human non-small cell lung cancer cell line NCI-H460 (ATCC company); host or cells: NCI-H460 human non-small cell lung cancer cells
T1 sequence (Q13315 whole entry): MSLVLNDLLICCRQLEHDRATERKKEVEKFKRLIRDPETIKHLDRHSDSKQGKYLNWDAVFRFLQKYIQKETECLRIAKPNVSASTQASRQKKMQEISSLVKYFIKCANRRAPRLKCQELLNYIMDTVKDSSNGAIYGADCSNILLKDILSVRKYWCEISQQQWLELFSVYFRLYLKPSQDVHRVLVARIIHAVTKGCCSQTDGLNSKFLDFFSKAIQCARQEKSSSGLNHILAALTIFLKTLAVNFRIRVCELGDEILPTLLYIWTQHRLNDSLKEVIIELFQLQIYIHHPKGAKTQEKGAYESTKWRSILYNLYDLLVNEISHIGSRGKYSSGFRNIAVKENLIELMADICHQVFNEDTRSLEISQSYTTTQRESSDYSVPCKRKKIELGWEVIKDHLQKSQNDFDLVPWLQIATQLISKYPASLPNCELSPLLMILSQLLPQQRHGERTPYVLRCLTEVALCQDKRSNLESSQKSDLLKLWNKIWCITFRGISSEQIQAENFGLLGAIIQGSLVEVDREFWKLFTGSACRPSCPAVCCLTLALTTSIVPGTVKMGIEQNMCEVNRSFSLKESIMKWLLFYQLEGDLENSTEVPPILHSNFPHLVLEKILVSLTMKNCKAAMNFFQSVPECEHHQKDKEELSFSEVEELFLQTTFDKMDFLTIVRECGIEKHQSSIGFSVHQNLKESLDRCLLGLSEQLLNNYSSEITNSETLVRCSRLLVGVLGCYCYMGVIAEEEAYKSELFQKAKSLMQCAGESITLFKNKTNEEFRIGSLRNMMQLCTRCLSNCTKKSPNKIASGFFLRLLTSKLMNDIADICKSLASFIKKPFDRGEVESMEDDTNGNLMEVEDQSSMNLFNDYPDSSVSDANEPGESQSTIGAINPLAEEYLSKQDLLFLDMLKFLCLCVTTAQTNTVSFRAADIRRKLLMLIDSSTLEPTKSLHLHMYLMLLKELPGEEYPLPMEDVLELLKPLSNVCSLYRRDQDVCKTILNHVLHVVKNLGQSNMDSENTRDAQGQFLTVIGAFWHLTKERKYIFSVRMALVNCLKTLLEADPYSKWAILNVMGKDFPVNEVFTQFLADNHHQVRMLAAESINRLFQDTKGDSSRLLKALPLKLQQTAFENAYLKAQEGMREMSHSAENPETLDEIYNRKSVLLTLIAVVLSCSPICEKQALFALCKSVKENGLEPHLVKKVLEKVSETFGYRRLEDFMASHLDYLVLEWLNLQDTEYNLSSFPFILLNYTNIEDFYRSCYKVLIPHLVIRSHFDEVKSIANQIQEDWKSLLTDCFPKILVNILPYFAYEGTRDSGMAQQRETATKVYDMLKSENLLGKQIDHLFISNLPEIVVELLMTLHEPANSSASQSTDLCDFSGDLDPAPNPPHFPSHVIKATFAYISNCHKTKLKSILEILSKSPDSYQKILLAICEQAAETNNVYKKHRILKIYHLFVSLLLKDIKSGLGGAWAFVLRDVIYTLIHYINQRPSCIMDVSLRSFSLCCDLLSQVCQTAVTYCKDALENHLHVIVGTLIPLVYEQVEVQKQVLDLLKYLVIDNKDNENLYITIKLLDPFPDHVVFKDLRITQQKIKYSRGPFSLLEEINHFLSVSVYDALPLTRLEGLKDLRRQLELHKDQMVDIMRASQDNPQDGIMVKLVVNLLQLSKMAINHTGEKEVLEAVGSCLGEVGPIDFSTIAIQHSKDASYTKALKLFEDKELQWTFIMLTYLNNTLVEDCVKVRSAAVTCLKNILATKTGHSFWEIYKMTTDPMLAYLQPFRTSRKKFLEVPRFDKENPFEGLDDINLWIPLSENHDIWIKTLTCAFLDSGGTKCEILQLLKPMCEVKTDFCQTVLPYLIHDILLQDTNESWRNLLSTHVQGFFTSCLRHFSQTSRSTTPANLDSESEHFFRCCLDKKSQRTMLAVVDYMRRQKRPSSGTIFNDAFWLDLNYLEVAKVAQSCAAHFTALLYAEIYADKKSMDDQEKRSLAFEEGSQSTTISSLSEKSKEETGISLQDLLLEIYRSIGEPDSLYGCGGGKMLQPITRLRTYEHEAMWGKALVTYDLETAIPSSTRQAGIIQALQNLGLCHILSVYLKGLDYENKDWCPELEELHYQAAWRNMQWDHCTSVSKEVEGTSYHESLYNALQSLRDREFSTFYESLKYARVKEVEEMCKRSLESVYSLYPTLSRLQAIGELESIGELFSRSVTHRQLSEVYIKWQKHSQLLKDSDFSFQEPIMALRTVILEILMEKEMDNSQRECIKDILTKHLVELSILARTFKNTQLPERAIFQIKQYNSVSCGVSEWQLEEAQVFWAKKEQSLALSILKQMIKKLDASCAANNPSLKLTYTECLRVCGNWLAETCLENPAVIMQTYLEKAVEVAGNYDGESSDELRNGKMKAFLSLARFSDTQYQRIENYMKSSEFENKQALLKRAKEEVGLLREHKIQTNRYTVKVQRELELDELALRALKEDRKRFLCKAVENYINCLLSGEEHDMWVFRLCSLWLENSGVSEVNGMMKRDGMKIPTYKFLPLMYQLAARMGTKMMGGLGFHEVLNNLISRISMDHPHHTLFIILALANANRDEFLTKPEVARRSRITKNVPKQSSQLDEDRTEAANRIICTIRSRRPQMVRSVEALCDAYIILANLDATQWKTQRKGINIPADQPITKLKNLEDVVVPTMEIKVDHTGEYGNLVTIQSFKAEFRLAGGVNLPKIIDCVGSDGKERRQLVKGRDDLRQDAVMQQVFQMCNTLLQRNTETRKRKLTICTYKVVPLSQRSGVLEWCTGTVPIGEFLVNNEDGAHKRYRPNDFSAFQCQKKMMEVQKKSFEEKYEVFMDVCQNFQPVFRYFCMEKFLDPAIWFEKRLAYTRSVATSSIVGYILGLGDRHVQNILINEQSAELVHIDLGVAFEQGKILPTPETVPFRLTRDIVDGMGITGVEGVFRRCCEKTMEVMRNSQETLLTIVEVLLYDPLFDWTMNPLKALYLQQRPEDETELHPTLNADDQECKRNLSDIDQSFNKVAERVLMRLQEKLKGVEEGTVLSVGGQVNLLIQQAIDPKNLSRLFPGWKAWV
Summary of the method: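 NCI-H460 cells treated with compound for 1 hour, then irradiated with 8Gy and incubated 1 hour at 37° C. Phospho-Chk2 measured by AlphaScreen SureFire. Inhibition ratio calculated relative to untreated irradiated and non-irradiated wells.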

[1] = test system: human non-small cell lung cancer cell line NCI-H460; assay: Cell proliferation inhibition test by sensitivity-enhancing to ionizing radiation (Cell Titer Glo); type: cell-based; conditions: concentration in which SER became 2, NCI-H460 cells, ionizing radiation 2 Gy, cultured 120 hour
Summary of the method: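 Cells seeded at 2×10^3 cells/mL in RPMI-1640 with 10% FBS; after 24 h, compound added (0.1% DMSO), and 30 min later half the plates irradiated at 2 Gy. After 120 hour at 37° C, viability by Cell Titer Glo luminescence; SER2 is the concentration giving SER of 2 by sigmoidal fit.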

| Compound | IC50 (ATM) | SER2 (concentration at which the radiation sensitivity-enhancement ratio reaches 2) [1] | SER2 (concentration at which the radiation sensitivity-enhancement ratio reaches 2) ([1]; Homo sapiens, NCI-H460, 120 h) | SER2 (concentration at which the radiation sensitivity-enhancement ratio reaches 2) ([1]; Homo sapiens) |
| --- | --- | --- | --- | --- |
| 6-(7-(((5-Methyl pyridin-2- yl)(1-methyl pyrrolidin-3-yl) methyl)amino)thianthren-1- yl)-4-morpholino pyridin-2 (1H)-one [Example 1-22-9] | < 0.1 µM | < 100 nM | – | – |
| CNc1ncc(CNc2ccc3c(c2)Sc2cccc(-c4cc(N5CCOCC5)cc(=O)[nH]4)c2S3)cn1 [Example 1-12-46, 6-(7-(((2-(Methylamino)pyrimidin-5-yl)methyl)amino)thianthren-1-yl)-4-morpholino pyridin-2(1H)-one] | < 0.1 µM | – | 100 to 500 nM | – |
| O=c1cc(N2CCOCC2)cc(-c2cccc3c2Sc2ccc(NCCN4CC5(COC5)C4)cc2S3)[nH]1 [Example 1-16-3, 6-(7-((2-(2-Oxa-6-azaspiro[3.3]heptan-6-yl)ethyl)amino)thianthren-1-yl)-4-morpholinopyridin-2(1H)-one] | < 0.1 µM | – | 100 to 500 nM | – |
| COC[C@H](CN1CCO[C@H](C)C1)Nc1ccc2c(c1)Sc1cccc(-c3cc(N4CCOCC4)cc(=O)[nH]3)c1S2 [Example 1-46-7, 6-(7-(((S)-1-Methoxy-3-((R)-2-methylmorpholino)propan-2-yl)amino)thianthren-1-yl)-4-morpholino pyridin-2(1H)-one] | < 0.1 µM | – | 100 to 500 nM | – |
| N#Cc1ccnc(CNc2ccc3c(c2)Sc2cccc(-c4cc(N5CCOCC5)cc(=O)[nH]4)c2S3)c1 [Example 1-12-28, 2-(((6-(4-Morpholino-6-oxo-1,6-dihydro-pyridin-2-yl)thianthren-2-yl)amino)methyl) isonicotinonitrile] | < 0.1 µM | – | 100 to 500 nM | – |
| CC(CN1CCCCC1)Nc1ccc2c(c1)Sc1cccc(-c3cc(N4CCOCC4)cc(=O)[nH]3)c1S2 (stereo not shown) [Example 1-13-4] | < 0.1 µM | – | 100 to 500 nM | – |
| CC1COCCN1CCNc1ccc2c(c1)Sc1cccc(-c3cc(N4CCOCC4)cc(=O)[nH]3)c1S2 (stereo not shown) [Example 1-16-7, 6-(7-((2-(3-Methylmorpholino)ethyl)amino)thianthren-1-yl)-4-morpholinopyridin-2(1H)-one] | < 0.1 µM | – | – | 100 to 500 nM |
| Cc1cccc(C(CN(C)C)Nc2ccc3c(c2)Sc2cccc(-c4cc(N5CCOCC5)cc(=O)[nH]4)c2S3)n1 (stereo not shown) [Example 1-22-3, 6-(7-((2-(Dimethylamino)-1-(6-methylpyridin-2-yl)ethyl)amino)thianthren-1-yl)-4-morpholino pyridin-2 (1H)-one] | < 0.1 µM | – | < 100 nM | – |
| COc1cnc(CNc2ccc3c(c2)Cc2cccc(-c4cc(N5CCOCC5)cc(=O)[nH]4)c2O3)cn1 [Example 2-2-36, 6-(7-(((5-Methoxypyrazin-2-yl)methyl)amino)-9H-xanthen-4-yl)-4-morpholino pyridin-2(1H)-one] | 0.1 to 0.5 µM | – | 500 to 2000 nM | – |
| O=c1cc(N2CCOCC2)cc(-c2cccc3c2Oc2ccc(NC4CCN(CCc5ccccc5)CC4)cc2S3)[nH]1 [Example 4-10, 4-Morpholino-6-(8-((1-phenethylpiperidin-4-yl)amino)phenoxathiin-4-yl)pyridin-2(1H)-one] | < 0.1 µM | – | 100 to 500 nM | – |
| CC(Nc1ccc2c(c1)Cc1cccc(-c3cc(N4CCOCC4)cc(=O)[nH]3)c1O2)c1cccc(F)n1 (single isomer, unassigned) [Example 2-14-87-1, 6-(7-((1-(6-fluoropyridin-2-yl)ethyl)amino)-9H-xanthen-4-yl)-4-morpholinopyridin-2(1H)-one] | < 0.1 µM | – | 100 to 500 nM | – |
| O=c1cc(N2CCOCC2)cc(-c2cccc3c2Sc2ccc(NC(CF)CN4CCOCC4)cc2S3)[nH]1 (racemic) [Example 1-41-1-1, 6-(7-((1-Fluoro-3-morpholinopropan-2-yl)amino)thianthren-1-yl)-4-morpholinopyridin-2(1H)-one] | < 0.1 µM | – | – | < 100 nM |
| Cc1ccnc(C(C)Nc2ccc3c(c2)Sc2cccc(-c4cc(N5CCOCC5)cc(=O)[nH]4)c2S3)c1 (single isomer, unassigned) [Example 1-12-135-2, 6-(7-((1-(4-methylpyridin-2-yl)ethyl)amino)thianthren-1-yl)-4-morpholinopyridin-2(1H)-one] | < 0.1 µM | 100 to 500 nM | – | – |
| Cc1cnc(C(C)Nc2ccc3c(c2)Sc2cccc(-c4cc(N5CCOCC5)cc(=O)[nH]4)c2S3)cn1 (single isomer, unassigned) [Example 1-12-137-1, 6-(7-((1-(5-methylpyrazin-2-yl)ethyl)amino)thianthren-1-yl)-4-morpholinopyridin-2(1H)-one] | < 0.1 µM | – | < 100 nM | – |
| Cc1ccc(C(C)(C)Nc2ccc3c(c2)Sc2cccc(-c4cc(N5CCOCC5)cc(=O)[nH]4)c2S3)nc1 [Example 1-50-2, 6-(7-((2-(5-Methylpyridin-2-yl)propan-2-yl)amino)thianthren-1-yl)-4-morpholino pyridin-2(1H)-one] | < 0.1 µM | – | 100 to 500 nM | – |
| Cc1cccc(C(C)Nc2ccc3c(c2)Cc2cccc(-c4cc(N5CCOCC5)cc(=O)[nH]4)c2O3)n1 (single isomer, unassigned) [Example 2-14-85-2, 6-(7-((1-(6-methylpyridin-2-yl)ethyl)amino)-9H-xanthen-4-yl)-4-morpholinopyridin-2(1H)-one] | < 0.1 µM | – | < 100 nM | – |
| Cc1ccc(C(Nc2ccc3c(c2)Sc2cccc(-c4cc(N5CCOCC5)cc(=O)[nH]4)c2S3)C(C)C)nc1 (stereo not shown) [Example 1-12-121, 6-(7-((2-Methyl-1-(5-methylpyridin-2-yl)propyl)amino)thianthren-1-yl)-4-morpholino pyridin-2(1H)-one] | < 0.1 µM | – | 100 to 500 nM | – |
| CN1CCN(CCNc2ccc3c(c2)Sc2cccc(-c4cc(N5CCOCC5)cc(=O)[nH]4)c2S3)CC1 [Example 1-10-9, 6-(7-((2-(4-Methylpiperazin-1-yl)ethyl)amino)thianthren-1-yl)-4-morpholino pyridin-2(1H)-one] | < 0.1 µM | – | 100 to 500 nM | – |
| CCC(CN1CCOCC1)Nc1ccc2c(c1)Sc1cccc(-c3cc(N4CCOCC4)cc(=O)[nH]3)c1S2 (stereo not shown) [Example 1-13-1, 4-Morpholino-6-(7-((1-morpholinobutan-2-yl)amino)thianthren-1-yl)pyridin-2(1H)-one] | < 0.1 µM | – | 100 to 500 nM | – |
| O=c1cc(N2CCOCC2)cc(-c2cccc3c2Sc2ccc(NCCN4CCCCC4)cc2S3)[nH]1 [Example 1-10-10] | < 0.1 µM | – | 100 to 500 nM | – |
| Cc1ccc(C(Nc2ccc3c(c2)Sc2cccc(-c4cc(N5CCOCC5)cc(=O)[nH]4)c2S3)C2CC2)nc1 (stereo not shown) [Example 1-12-123, 6-(7-((Cyclopropyl(5-methylpyridin-2-yl)methyl)amino)thianthren-1-yl)-4-morpholino pyridin-2(1H)-one] | < 0.1 µM | – | 100 to 500 nM | – |
| COCC(CN1CCOCC1)Nc1ccc2c(c1)Sc1cccc(-c3cc(N4CCOCC4)cc(=O)[nH]3)c1S2 (single isomer, unassigned) [Example 1-17-1-2, 6-(7-((1-methoxy-3-morpholinopropan-2-yl)amino)thianthren-1-yl)-4-morpholinopyridin-2(1H)-one] | < 0.1 µM | – | < 100 nM | – |
| O=c1cc(N2CCOCC2)cc(-c2cccc3c2Sc2ccc(NC4CCN(C5CC5)CC4)cc2S3)[nH]1 [Example 1-24-18, 6-(7-((1-Cyclopropylpiperidin-4-yl)amino)thianthren-1-yl)-4-morpholino pyridin-2(1H)-one] | < 0.1 µM | – | 100 to 500 nM | – |
| COc1cncc(CNc2ccc3c(c2)Sc2cccc(-c4cc(N5CCOCC5)cc(=O)[nH]4)c2O3)c1 [Example 4-8-1, 6-(8-(((5-Methoxypyridin-3-yl)methyl)amino)phenoxathiin-4-yl)-4-morpholinopyridin-2(1H)-one] | < 0.1 µM | – | 100 to 500 nM | – |
| Cc1ccc(C(Nc2ccc3c(c2)Sc2cccc(-c4cc(N5CCOCC5)cc(=O)[nH]4)c2S3)C2CC(N(C)C)C2)nc1 (single isomer, unassigned) [Example 1-50-8, 6-(7-(((3-(Dimethylamino)cyclobutyl)(5-methylpyridin-2-yl)methyl)amino)thianthren-1-yl)-4-morpholino pyridin-2(1H)-one] | < 0.1 µM | – | < 100 nM | – |
| C=C(C)c1cncc(CNc2ccc3c(c2)Cc2cccc(-c4cc(N5CCOCC5)cc(=O)[nH]4)c2O3)c1 [Example 2-14-10, 4-Morpholino-6-(7-(((5-(prop-1-en-2-yl)pyridin-3-yl)methyl)amino)-9H-xanthen-4-yl)pyridin-2 (1H)-one] | < 0.1 µM | – | 100 to 500 nM | – |
